In patent US7994172B2, “[1H-pyrazolo[3, 4-D]pyrimidin-4-yl]-piperidine or -piperazine compounds as serine-theoronine kinase modulators (P70s6k, Atk1 and Atk2) for the treatment of immunological, inflammatory and proliferative diseases” (Exelixis, Inc., priority 2004, dated 2011):

Tests used:
Format in all cases: biochemical
[1] = molecular target: T1, human p70S6 kinase (p70S6K, kinase domain residues 1-421, T412E mutation) (Homo sapiens, UniProt P23443, T412E); assay: p70S6 kinase assay, Luciferase-Coupled Chemiluminescent Kinase assay (LCCA); conditions: 5 μM ATP, 12 nM p70S6K; read-out: p70S6K inhibition IC50
T1 construct: human p70S6 kinase domainresidues 1-421, containing a T412E mutation; made in house
How it was run: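 Baculovirus-expressed kinase domain (12 nM) reacted 2 h at ambient temperature with 5 μM ATP and 5 μM RRRLSSLRA peptide. Buffer was Tris pH 7.5 with MgCl2, MnCl2, DTT and Triton X-100. Remaining ATP was read by luciferase-luciferin chemiluminescence. IC50 came from 10-point dose-response with a four-parameter Hill fit.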

[2] = molecular target: T2, human Akt1 kinase (kinase domain residues R144-A480, activated with PDK1) (Homo sapiens, UniProt P31749); assay: Akt1 kinase assay, Luciferase-Coupled Chemiluminescent Kinase assay (LCCA); conditions: 1 μM ATP, 1.3 nM Akt1; read-out: Akt-1 inhibition IC50
T2 construct: made in house
How it was run: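 Baculovirus-expressed PDK1-activated Akt1 kinase domain (R144-A480), 1.3 nM, with 5 μM crosstide and 1 μM ATP in Tris pH 7.5 with MgCl2/MnCl2, 3 h at ambient temperature. Remaining ATP read by luciferase-luciferin chemiluminescence; 10-point IC50 from four-parameter fit.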

[3] = molecular target: T3, human Akt2 kinase (kinase domain residues K146-R480) (Homo sapiens, UniProt P31751); assay: Akt2 kinase assay, Luciferase-Coupled Chemiluminescent Kinase assay (LCCA); conditions: 2 μM ATP, 10 nM Akt2; read-out: Akt-2 inhibition IC50
T3 construct: human Akt2 kinase domain residues K146-R480; made in house
Description: Kinase activity and compound inhibition are investigated using one or more of the three assay formats described below. The ATP concentrations for each assay are selected to be close to the Michaelis-Menten constant (KM) for each individual kinase. Dose-response experiments are performed at 10 different inhibitor concentrations in a 384-well plate format. The data are fitted to four-parameter equation (2) below; where Y is the observed signal, X is the inhibitor concentration, Min is the background signal in the absence of enzyme (0% enzyme activity), Max is the signal in the absence of inhibitor (100% enzyme activity), IC50 is the inhibitor concentration at 50% enzyme inhibition and H represents the empirical Hill's slope to measure the cooperativity. Typically H is close to unity. Y=Min+(Max−Min)/(1+(X/IC50)^H) Equation (2) p70S6 Kinase Assay
Biochemical activity of Akt2 kinase was assessed using a Luciferase-Coupled Chemiluminescent Kinase assay (LCCA) format. Kinase activity was measured as the percent ATP remaining following the kinase reaction. Remaining ATP was detected by luciferase-luciferin-coupled chemiluminescence. Specifically, the reaction was initiated by mixing test compounds, 2 μM ATP, 5 μM crosstide peptide and 10 nM Akt2 (baculovirus expressed human Akt2 kinase domain residues K146-R480) in a 20 uL assay buffer (20 mM Tris-HCL pH 7.5, 10 mM MgCl2, 0.03% Triton X-100, 1 mM DTT, 3 mM MnCl2). The mixture is incubated at ambient temperature for 2 hours after which 20 μL luciferase-luciferin mix is added and the chemiluminescent signal read using a Wallac Victor2 reader. The luciferase-luciferin mix consists of 50 mM HEPES, pH 7.8, 8.5 μg/mL oxalic acid (pH 7.8), 5 (or 50) mM DTT, 0.4% Triton X-100, 0.25 mg/mL coenzyme A, 63 uM AMP, 28 μg/mL luciferin and 40,000 units/mL luciferase.

T1 sequence (P23443 1-421 T412E): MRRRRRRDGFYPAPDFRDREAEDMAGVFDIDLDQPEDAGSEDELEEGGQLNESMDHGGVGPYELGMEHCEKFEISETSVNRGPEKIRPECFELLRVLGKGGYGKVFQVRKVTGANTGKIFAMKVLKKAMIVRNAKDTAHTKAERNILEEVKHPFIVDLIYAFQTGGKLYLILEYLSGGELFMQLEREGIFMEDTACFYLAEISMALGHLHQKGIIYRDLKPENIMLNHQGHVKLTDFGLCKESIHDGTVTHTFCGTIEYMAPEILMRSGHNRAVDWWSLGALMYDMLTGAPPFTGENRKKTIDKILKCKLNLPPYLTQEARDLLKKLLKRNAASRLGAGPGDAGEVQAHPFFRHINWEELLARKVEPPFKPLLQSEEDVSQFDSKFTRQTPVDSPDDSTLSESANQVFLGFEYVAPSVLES
T2 sequence (P31749 144-480): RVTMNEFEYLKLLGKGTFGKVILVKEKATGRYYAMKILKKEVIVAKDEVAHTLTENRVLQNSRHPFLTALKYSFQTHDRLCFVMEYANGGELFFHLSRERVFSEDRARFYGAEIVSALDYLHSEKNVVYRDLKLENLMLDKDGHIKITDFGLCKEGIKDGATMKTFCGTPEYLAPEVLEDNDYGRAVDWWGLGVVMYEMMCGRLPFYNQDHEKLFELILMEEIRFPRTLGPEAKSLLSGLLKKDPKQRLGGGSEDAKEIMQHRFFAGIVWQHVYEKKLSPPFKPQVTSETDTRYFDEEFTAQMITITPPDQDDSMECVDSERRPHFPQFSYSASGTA
T3 sequence (P31751 146-480): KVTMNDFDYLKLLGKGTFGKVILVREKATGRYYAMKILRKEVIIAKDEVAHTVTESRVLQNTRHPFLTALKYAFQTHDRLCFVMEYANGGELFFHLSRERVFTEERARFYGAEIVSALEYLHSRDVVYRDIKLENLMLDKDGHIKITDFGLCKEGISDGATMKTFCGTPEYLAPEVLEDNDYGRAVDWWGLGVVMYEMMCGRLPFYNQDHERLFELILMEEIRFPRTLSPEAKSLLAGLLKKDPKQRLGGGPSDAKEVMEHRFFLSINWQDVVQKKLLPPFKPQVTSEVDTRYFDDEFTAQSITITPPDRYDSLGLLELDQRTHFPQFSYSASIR

IC50 [1]	IC50 [2]	IC50 [3]	SMILES
< 50 nM	> 2000 nM	> 2000 nM	Brc1n[nH]c2ncnc(N3CCN(Cc4ccc(-c5ccccc5)cc4)CC3)c12 [Entry 30, 4-[4-(biphenyl-4-ylmethyl)piperazin-1-yl]-3-bromo-1H-pyrazolo[3,4-d]pyrimidine]
< 50 nM	500 to 2000 nM	> 2000 nM	COc1ccc(CN2CCN(c3ncnc4[nH]nc(Br)c34)CC2)cc1 [Entry 32, 3-bromo-4-(4-{[4-(methyloxy)phenyl]methyl}piperazin-1-yl)-1H-pyrazolo[3,4-d]pyrimidine]
< 50 nM	> 2000 nM	> 2000 nM	O=C(Nc1cccc(C(F)(F)F)c1)N1CCN(c2ncnc3[nH]nc(Br)c23)CC1 [Entry 33, 4-(3-bromo-1H-pyrazolo[3,4-d]pyrimidin-4-yl)-N-[3-(trifluoromethyl)phenyl]piperazine-1-carboxamide]
< 50 nM	500 to 2000 nM	> 2000 nM	Fc1ccc(CN2CCN(c3ncnc4[nH]nc(Br)c34)CC2)cc1 [Entry 34, 3-bromo-4-{4-[(4-fluorophenyl)methyl]piperazin-1-yl}-1H-pyrazolo[3,4-d]pyrimidine]
< 50 nM	500 to 2000 nM	> 2000 nM	Brc1n[nH]c2ncnc(N3CCN(Cc4ccc5c(c4)OCO5)CC3)c12 [Entry 37, 4-[4-(1,3-benzodioxol-5-ylmethyl)piperazin-1-yl]-3-bromo-1H-pyrazolo[3,4-d]pyrimidine]
< 50 nM	> 2000 nM	> 2000 nM	Brc1n[nH]c2ncnc(N3CCN(Cc4ccc(Oc5ccccc5)cc4)CC3)c12 [Entry 39, 3-bromo-4-(4-{[4-(phenyloxy)phenyl]methyl}piperazin-1-yl)-1H-pyrazolo[3,4-d]pyrimidine]
< 50 nM	> 2000 nM	> 2000 nM	Clc1ccccc1CN1CCN(c2ncnc3[nH]nc(Br)c23)CC1 [Entry 46, 3-bromo-4-{4-[(2-chlorophenyl)methyl]piperazin-1-yl}-1H-pyrazolo[3,4-d]pyrimidine]
< 50 nM	> 2000 nM	> 2000 nM	Fc1ccc(CN2CCN(c3ncnc4[nH]nc(Br)c34)CC2)c(Cl)c1 [Entry 48, 3-bromo-4-{4-[(2-chloro-4-fluorophenyl)methyl]piperazin-1-yl}-1H-pyrazolo[3,4-d]pyrimidine]
50 to 500 nM	> 2000 nM	> 2000 nM	Brc1n[nH]c2ncnc(N3CCN(Cc4cccc(Oc5ccccc5)c4)CC3)c12 [Entry 53, 3-bromo-4-(4-{[3-(phenyloxy)phenyl]methyl}piperazin-1-yl)-1H-pyrazolo[3,4-d]pyrimidine]
50 to 500 nM	> 2000 nM	> 2000 nM	N#Cc1cccc(CN2CCN(c3ncnc4[nH]nc(Br)c34)CC2)c1 [Entry 55, 3-{[4-(3-bromo-1H-pyrazolo[3,4-d]pyrimidin-4-yl)piperazin-1-yl]methyl}benzonitrile]
50 to 500 nM	> 2000 nM	> 2000 nM	Brc1n[nH]c2ncnc(N3CCN(Cc4ccncc4)CC3)c12 [Entry 58, 3-bromo-4-[4-(pyridin-4-ylmethyl)piperazin-1-yl]-1H-pyrazolo[3,4-d]pyrimidine]
50 to 500 nM	> 2000 nM	> 2000 nM	COc1ccc(CN2CCN(c3ncnc4[nH]nc(Br)c34)CC2)c(OC)c1OC [Entry 61, 3-bromo-4-(4-{[2,3,4-tris(methyloxy)phenyl]methyl}piperazin-1-yl)-1H-pyrazolo[3,4-d]pyrimidine]

More lines, now with the values behind:

SMILES	IC50 [1]	IC50 [2]	IC50 [3]
C[C@H]1CN(c2ncnc3[nH]nc(Br)c23)CCN1Cc1ccc(Cl)cc1 [Entry 31, 3-bromo-4-{(3S)-4-[(4-chlorophenyl)methyl]-3-methylpiperazin-1-yl}-1H-pyrazolo[3,4-d]pyrimidine]	< 50 nM	500 to 2000 nM	> 2000 nM
Brc1n[nH]c2ncnc(N3CCN(Cc4ccc5c(c4)OCCO5)CC3)c12 [Entry 36, 3-bromo-4-[4-(2,3-dihydro-1,4-benzodioxin-6-ylmethyl)piperazin-1-yl]-1H-pyrazolo[3,4-d]pyrimidine]	< 50 nM	> 2000 nM	> 2000 nM
O=C(c1ccc(Cl)cc1)C1CCN(c2ncnc3[nH]nc(Br)c23)CC1 [Entry 38, [1-(3-bromo-1H-pyrazolo[3,4-d]pyrimidin-4-yl)piperidin-4-yl](4-chlorophenyl)methanone]	< 50 nM	500 to 2000 nM	> 2000 nM
CN(C)c1ccc(CN2CCN(c3ncnc4[nH]nc(Br)c34)CC2)cc1 [Entry 41, 4-{[4-(3-bromo-1H-pyrazolo[3,4-d]pyrimidin-4-yl)piperazin-1-yl]methyl}-N,N-dimethylaniline]	< 50 nM	> 2000 nM	> 2000 nM
O=C(/C=C/c1ccccc1)N1CCN(c2ncnc3[nH]nc(Br)c23)CC1 [Entry 43, 3-bromo-4-{4-[(2E)-3-phenylprop-2-enoyl]piperazin-1-yl}-1H-pyrazolo[3,4-d]pyrimidine]	< 50 nM	> 2000 nM	> 2000 nM
Brc1ccccc1CN1CCN(c2ncnc3[nH]nc(Br)c23)CC1 [Entry 45, 3-bromo-4-{4-[(2-bromophenyl)methyl]piperazin-1-yl}-1H-pyrazolo[3,4-d]pyrimidine]	< 50 nM	> 2000 nM	> 2000 nM
Clc1ccc(CN2CCN(c3ncnc4[nH]nc(Br)c34)CC2)c(Cl)c1 [Entry 47, 3-bromo-4-{4-[(2,4-dichlorophenyl)methyl]piperazin-1-yl}-1H-pyrazolo[3,4-d]pyrimidine]	< 50 nM	500 to 2000 nM	> 2000 nM
Brc1n[nH]c2ncnc(N3CCN(Cc4ccccc4)CC3)c12 [Entry 50, 3-bromo-4-[4-(phenylmethyl)piperazin-1-yl]-1H-pyrazolo[3,4-d]pyrimidine]	50 to 500 nM	> 2000 nM	> 2000 nM
O=C(CN1CCN(c2ncnc3[nH]nc(Br)c23)CC1)Nc1ccccn1 [Entry 51, 2-[4-(3-bromo-1H-pyrazolo[3,4-d]pyrimidin-4-yl)piperazin-1-yl]-N-pyridin-2-ylacetamide]	50 to 500 nM	> 2000 nM	> 2000 nM
Brc1n[nH]c2ncnc(N3CCN(Cc4ncc[nH]4)CC3)c12 [Entry 52, 3-bromo-4-[4-(1H-imidazol-2-ylmethyl)piperazin-1-yl]-1H-pyrazolo[3,4-d]pyrimidine]	50 to 500 nM	> 2000 nM	> 2000 nM
Cc1cccc(CN2CCN(c3ncnc4[nH]nc(Br)c34)CC2)c1 [Entry 54, 3-bromo-4-{4-[(3-methylphenyl)methyl]piperazin-1-yl}-1H-pyrazolo[3,4-d]pyrimidine]	50 to 500 nM	> 2000 nM	> 2000 nM
Fc1cccc(Cl)c1CN1CCN(c2ncnc3[nH]nc(Br)c23)CC1 [Entry 56, 3-bromo-4-{4-[(2-chloro-6-fluorophenyl)methyl]piperazin-1-yl}-1H-pyrazolo[3,4-d]pyrimidine]	50 to 500 nM	> 2000 nM	> 2000 nM
CC(c1ccccc1)N1CCN(c2ncnc3[nH]nc(Br)c23)CC1 (stereo not drawn) [Entry 57, 3-bromo-4-[4-(1-phenylethyl)piperazin-1-yl]-1H-pyrazolo[3,4-d]pyrimidine]	50 to 500 nM	> 2000 nM	> 2000 nM
Brc1n[nH]c2ncnc(N3CCN(Cc4cccnc4)CC3)c12 [Entry 60, 3-bromo-4-[4-(pyridin-3-ylmethyl)piperazin-1-yl]-1H-pyrazolo[3,4-d]pyrimidine]	50 to 500 nM	> 2000 nM	> 2000 nM
Brc1n[nH]c2ncnc(N3CCN(Cc4cccc(OCc5ccccc5)c4)CC3)c12 [Entry 62, 3-bromo-4-[4-({3-[(phenylmethyl)oxy]phenyl}methyl)piperazin-1-yl]-1H-pyrazolo[3,4-d]pyrimidine]	50 to 500 nM	> 2000 nM	> 2000 nM
